Reference: patent publication US20240261319A1, “ANTI-FUNGAL COMPOSITION DERIVED FROM HESPERALOE” (Kimberly-Clark Worldwide, Inc., priority 2021, published 2024)
Converted amounts (≈) assume the structure as drawn.

System: Candida albicans
Test: Minimum inhibitory concentration (MIC) testing, two-fold broth dilution in YPD, OD620
Assay type: cell-based
Conditions: C. albicans (ATCC) in YPD broth, two-fold dilutions starting at 200, 30° C., 18-24 hours
Protocol: Candida albicans, was purchased from ATCC. Thirty-five samples derived from KC Hesperaloe funifera, crude extracts and selected fractions (Table 1) were screened for the inhibition of growth of candida.
Minimum inhibitory concentration (MIC) testing was performed. Two-fold dilutions of sample prepared in C. albicans growth medium (Yeast Peptone Dextrose, YPD) broth, starting at 200 µg/mL. Then inoculum added and incubated at 30° C. for 18-24 hours, and OD620 was determined. T-test was used to determine statistically significant decreases in growth ([…]). Controls included Ketoconazole (50 µg/mL, Keto50), Neg (media with DMSO only, no inoculum), Pos (media with DMSO and inoculum), and YPD (broth only). In wells with decreased growth, wells were mixed by pipetting, and […] samples were plated on YPD agar to determine whether viable C. albicans were present, as an estimation of minimum fungicidal concentration (MFC).

SMILES: CC(=O)N1CCN(c2ccc(OCC3COC(Cn4ccnc4)(c4ccc(Cl)cc4Cl)O3)cc2)CC1 (stereo not shown) [Ketoconazole]
- MIC: 25 mg/mL (≈ 47 mM)
